Measurements reported in patent US11555012B2 (Nimbus Artemis, Inc., priority 2018, dated 2023).
Like-named read-outs stand apart in the source and are kept apart here.

Experiments:
pyruvate carboxylase = pyruvate carboxylase (Homo sapiens (Human), UniProt P11498); settings: cited from earlier work
ACC2 = ACC2 isolated from rat, mouse, monkey and human; cited from earlier work
[1] = target: propionyl-CoA carboxylase (Homo sapiens (Human), UniProt P05165+P05166); settings: cited from earlier work
ACC1 = ACC1 isolated from rat, mouse, monkey and human; cited from earlier work
[2] = target: ACLY enzyme, from S100 fraction of rat livers (Rattus norvegicus (Rat), UniProt P16638); test: rACLY S100 14C-Citrate incorporation assay (IC50 Fatty Acid synthesis); type: biochemical; settings: rat liver S100 fraction; fatty acid labeling from 14C-citrate; read-out: rACLY S100 14C-Citrate FA IC50
Source text: Example 336. rACLY S100 ^14C-Citrate Incorporation Assay (IC50 Fatty Acid Synthesis)
Cell-free preparations of liver can synthesize long-chain fatty acids through a pathway which includes the formation of malonyl co-enzyme A (CoA) from acetyl CoA and CO2. The ACLY enzyme, from S100 fraction of rat livers, can transfer CoA, ATP and Citrate to acetyl-CoA, which is the precursor of fatty acid synthesis. Addition of ^14C-citrate to the S100 fraction enables fatty acid labeling from the ACLY reaction, and thus, the effect of ACLY inhibition can be measured in these preparations.
S100 fractions from rat livers were prepared in order to study the effect of ACLY inhibition on fatty acid synthesis using ^14C-citrate as the radiolabel. Fresh livers were excised and quickly homogenized using a 15 ml dounce homogenizer (D9188-1SET from Sigma) in 1 volume of assay buffer containing 0.25 M sucrose, 1 mM potassium citrate, and protease inhibitor cocktail. Homogenates were centrifuged at 20,000×g for 20 min at 4° C. The supernatant was centrifuged at 100,000×g for 2 hours at 4° C. This fraction is S100. For compound addition, 17.5 μL of compound at the desired concentration was added to 350 μL of S100 fraction solution (derived from 0.5 g fresh liver) in 15 mL centrifuge tubes and exposed to air at 37° C. for 30 min. Radiolabeled [^14C]-citrate (60 μL, 3 μCi) was added per tube, plus 40 μL reaction buffer and 3032.5 μL substrate buffer (diluted with reaction buffer, final conc.: 1 mM ATP, 60 μM CoA, 100 μM non-radiolabeled citrate, 0.5% DMSO). Total reaction volume equaled 3.5 mL and was mixed at 37° C. for 2 hours. At the end of the reaction, each sample was saponified at 70° C. for 120 minutes in 1.5 mL of 2.5M NaOH, then cooled to room temperature. Ethanol (2.5 mL) was added to the tubes, and the solution was mixed and allowed to stand overnight. […] Next, samples were acidified in 15 mL tubes directly with 0.6 mL concentrated HCl, to ensure pH<1. Fatty acids were extracted by adding 5 mL of petroleum ether per tube, the tubes were shaken vigorously, then centrifuged at 1000 rpm for 5 min. […]

ACL [3] = target: T1, ACL (Homo sapiens (Human), UniProt P53396); test: ACLY-MDH Coupled Assay
Target sequence in this assay (P53396 whole entry, species assumed): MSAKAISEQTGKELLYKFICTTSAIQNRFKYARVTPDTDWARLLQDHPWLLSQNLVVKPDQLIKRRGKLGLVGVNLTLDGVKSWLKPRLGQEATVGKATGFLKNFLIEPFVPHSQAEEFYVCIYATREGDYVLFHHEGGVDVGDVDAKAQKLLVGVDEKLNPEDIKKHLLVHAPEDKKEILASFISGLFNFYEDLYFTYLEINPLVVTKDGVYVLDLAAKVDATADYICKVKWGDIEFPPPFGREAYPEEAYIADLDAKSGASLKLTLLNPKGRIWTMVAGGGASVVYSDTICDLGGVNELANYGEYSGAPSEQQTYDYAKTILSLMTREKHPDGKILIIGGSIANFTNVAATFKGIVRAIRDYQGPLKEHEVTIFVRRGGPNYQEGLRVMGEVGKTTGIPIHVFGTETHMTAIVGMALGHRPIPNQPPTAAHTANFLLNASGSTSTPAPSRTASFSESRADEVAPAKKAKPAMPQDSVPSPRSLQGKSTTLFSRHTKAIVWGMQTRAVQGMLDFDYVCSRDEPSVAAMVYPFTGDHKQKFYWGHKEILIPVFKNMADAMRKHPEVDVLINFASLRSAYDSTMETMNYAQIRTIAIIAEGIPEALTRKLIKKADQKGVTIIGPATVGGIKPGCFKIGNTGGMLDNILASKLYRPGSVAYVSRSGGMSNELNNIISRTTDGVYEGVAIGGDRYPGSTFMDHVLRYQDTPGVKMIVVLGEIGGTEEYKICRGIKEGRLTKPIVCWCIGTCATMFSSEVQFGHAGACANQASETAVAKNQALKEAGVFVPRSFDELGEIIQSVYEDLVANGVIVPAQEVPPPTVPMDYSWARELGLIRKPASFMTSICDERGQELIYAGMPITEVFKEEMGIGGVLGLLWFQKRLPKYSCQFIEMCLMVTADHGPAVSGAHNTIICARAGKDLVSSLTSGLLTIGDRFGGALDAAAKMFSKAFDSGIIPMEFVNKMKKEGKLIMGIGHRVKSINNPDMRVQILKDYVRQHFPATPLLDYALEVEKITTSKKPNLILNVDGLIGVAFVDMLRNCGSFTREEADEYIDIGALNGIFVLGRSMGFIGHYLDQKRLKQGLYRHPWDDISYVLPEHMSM
Description: Compounds of the present invention were evaluated in an ACLY Coupled Assay.
The assay protocol for the Coupled Assay (below) was followed:
b) Add 1 μL cpds to 96 assay plate, Test cpd conc: 100/30/10 μM top dose, 3 folds dilution, 10+0+control (control: buffer without ACL+DMSO) points, 1000 rpm for 1 min, incubation at 25° C. for 60 min

HepG2 cells [4] = test: ACLY HepG2 14C-Pyruvate incorporation assay with serum (IC50 Fatty Acid); type: cell-based; settings: Homo sapiens, table title: with serum, column head: serum free, 96 well, read-out: ACLY HepG2 14C-Pyruvate Assay serum free IC50 FA 96 well (IC50)
Source text: Example 333. ACLY HepG2 ^14C-Pyruvate Incorporation Assay (IC50 Fatty Acid)
(§1) 5. […] 6. […] 7. […] 8. […] 9. Repeat the Step 8 10.

HepG2 cells [5] = settings: Homo sapiens, HepG2, read-out: ACLY HepG2 14C-Pyruvate Assay serum free IC50 Cholesterol (IC50) [μM]
Description: ACLY HepG2 ^14C-Pyruvate Incorporation Serum-Free Assay (IC50 Cholesterol and Fatty Acid Synthesis)
Compounds of the present invention were evaluated in a HepG2 ^14C-pyruvate incorporation assay. The protocol below was followed:
(§2) After 48 hours, change medium with fresh growth medium.
(§3) After 18 hours, replaced medium using 0.5 mL fresh medium (5.5 mM Glucose, without FBS, 1% PS, without Pyruvate) containing Compounds or 0.5% DMSO, incubated at 37° C., 5% CO2 for 1 hour.
(§4) Add 3 μci of [14C]-pyruvate per well to the cell samples were incubated at 37° C., 5% CO2 for 5 hours.
Medium was removed and placed into a 15 mL centrifuge tube. Add 0.5 mL of 0.1M NaOH to each well and then transfer the cell lysates into the corresponding 15 mL centrifuge tubes. 1.0 mL of EtOH and 0.17 mL 50% KOH were added to 15 mL tubes containing medium and cell suspensions, then shaking tube gently. […] Saponification 15 mL tubes containing medium and cell suspensions were incubated at 90° C. for 1 hour, then cooled to room temperature. […] Cholesterol Extraction 5 mL of petroleum ether was added per tube to extract Cholesterol, shaken vigorously, centrifuged at 1000 rpm for 5 min, and ˜5 mL of the petroleum ether layer was transferred to a new glass tube (18*180 mm). […] Acidification The samples in 15 mL tube were acidified directly with 1 mL concentrated HCl, make sure pH was below 1. […] Fatty Acids Extraction 5 mL of petroleum ether was added per tube, shaken vigorously, centrifuged at 1000 rpm for 5 min, 5 mL of the petroleum ether layer was transferred to the corresponding glass tube. […] Count The petroleum ether extracts were pooled and evaporated to dryness overnight. The residue from the petroleum ether fractions were resuspended in 500 μL of chloroform-hexane (1:1) containing 420 μg of linoleic acid as a carrier. Add 200 μL of resuspending (chloroform-hexane (1:1) containing 168 μg of linoleic acid) to 2 mL Ultima Gold™, after 30 min, count on a scintillation counter.

ACL [6] = target: T1, ACL; test: ADP-Glo Assay
Target sequence in this assay (P53396 other isoform, or with tags, fused parts or gaps isoform P53396-2): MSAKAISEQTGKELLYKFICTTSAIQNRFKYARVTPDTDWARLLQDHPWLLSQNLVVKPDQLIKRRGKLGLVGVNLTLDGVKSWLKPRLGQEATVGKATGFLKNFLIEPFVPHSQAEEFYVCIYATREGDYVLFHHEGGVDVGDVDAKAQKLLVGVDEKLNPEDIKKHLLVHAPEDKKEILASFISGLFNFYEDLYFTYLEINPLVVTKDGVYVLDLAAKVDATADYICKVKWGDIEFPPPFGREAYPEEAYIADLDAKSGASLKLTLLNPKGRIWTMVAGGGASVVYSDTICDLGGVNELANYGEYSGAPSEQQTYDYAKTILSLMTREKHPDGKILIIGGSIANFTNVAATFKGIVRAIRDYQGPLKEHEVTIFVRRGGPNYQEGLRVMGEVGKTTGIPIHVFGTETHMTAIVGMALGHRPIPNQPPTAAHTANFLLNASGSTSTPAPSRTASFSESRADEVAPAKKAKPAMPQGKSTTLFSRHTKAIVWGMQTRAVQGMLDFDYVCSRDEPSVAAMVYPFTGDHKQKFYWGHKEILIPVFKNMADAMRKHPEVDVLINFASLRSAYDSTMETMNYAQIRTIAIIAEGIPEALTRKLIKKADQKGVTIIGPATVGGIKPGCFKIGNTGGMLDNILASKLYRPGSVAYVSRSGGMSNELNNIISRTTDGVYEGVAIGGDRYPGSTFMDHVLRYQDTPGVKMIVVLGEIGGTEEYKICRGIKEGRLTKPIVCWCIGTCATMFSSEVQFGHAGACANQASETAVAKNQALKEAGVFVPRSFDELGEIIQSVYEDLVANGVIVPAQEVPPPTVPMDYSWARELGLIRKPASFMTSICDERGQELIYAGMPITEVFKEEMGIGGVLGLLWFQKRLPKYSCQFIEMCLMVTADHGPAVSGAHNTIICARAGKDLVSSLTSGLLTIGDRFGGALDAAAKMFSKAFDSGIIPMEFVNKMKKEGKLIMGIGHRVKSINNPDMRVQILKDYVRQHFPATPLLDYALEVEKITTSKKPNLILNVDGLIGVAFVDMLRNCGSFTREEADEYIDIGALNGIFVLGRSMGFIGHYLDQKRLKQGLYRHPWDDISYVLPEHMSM

HepG2 cells [7] = settings: Homo sapiens, HepG2, read-out: ACLY HepG2 14C-Pyruvate Assay serum free IC50 FA (IC50) [μM]
Description: ACLY HepG2 ^14C-Pyruvate Incorporation Serum-Free Assay (IC50 Fatty
The protocol of the assay (below) was followed:
as §2, §3, §4
Medium was removed and placed into a 15 mL centrifuge tube. Add 0.5 mL of 0.1M NaOH to each well and then transfer the cell lysates into the corresponding 15 mL centrifuge tubes. 1.0 mL of EtOH and 0.17 mL 50% KOH were added to 15 mL tubes containing medium and cell suspensions, then shaking tube gently. […] Saponification 15 mL tubes containing medium and cell suspensions were incubated at 90° C. for 1 hour, then cooled to room temperature. […] Cholesterol Extraction 5 mL of petroleum ether was added per tube to extract Cholesterol, shaken vigorously, centrifuged at 1000 rpm for 5 min, and ˜5 mL of the petroleum ether layer was transferred to a new glass tube (18*180 mm). […] Acidification The samples in 15 mL tube were acidified directly with 1 mL concentrated HCl, make sure pH was below 1. […] Fatty Acids Extraction 5 mL of petroleum ether was added per tube, shaken vigorously, centrifuged at 1000 rpm for 5 min, 5 mL of the petroleum ether layer was transferred to the corresponding glass tube. […] Repeat the Step 8 10. Count The petroleum ether extracts were pooled and evaporated to dryness overnight. The residue from the petroleum ether fractions were resuspended in 500 μL of chloroform-hexane (1:1) containing 420 μg of linoleic acid as a carrier. Add 200 μL of resuspending (chloroform-hexane (1:1) containing 168 μg of linoleic acid) to 2 mL Ultima Gold™, after 30 min, count on a scintillation counter.

HepG2 cells [8] = test: ACLY HepG2 14C-Pyruvate incorporation assay with serum (IC50 Cholesterol); type: cell-based; settings: Homo sapiens, table title: with serum, column head: serum free, 96 well
Source text: The protocol below was followed:
as §1

Sequence of ACLY enzyme, from S100 fraction of rat livers (P16638 whole entry): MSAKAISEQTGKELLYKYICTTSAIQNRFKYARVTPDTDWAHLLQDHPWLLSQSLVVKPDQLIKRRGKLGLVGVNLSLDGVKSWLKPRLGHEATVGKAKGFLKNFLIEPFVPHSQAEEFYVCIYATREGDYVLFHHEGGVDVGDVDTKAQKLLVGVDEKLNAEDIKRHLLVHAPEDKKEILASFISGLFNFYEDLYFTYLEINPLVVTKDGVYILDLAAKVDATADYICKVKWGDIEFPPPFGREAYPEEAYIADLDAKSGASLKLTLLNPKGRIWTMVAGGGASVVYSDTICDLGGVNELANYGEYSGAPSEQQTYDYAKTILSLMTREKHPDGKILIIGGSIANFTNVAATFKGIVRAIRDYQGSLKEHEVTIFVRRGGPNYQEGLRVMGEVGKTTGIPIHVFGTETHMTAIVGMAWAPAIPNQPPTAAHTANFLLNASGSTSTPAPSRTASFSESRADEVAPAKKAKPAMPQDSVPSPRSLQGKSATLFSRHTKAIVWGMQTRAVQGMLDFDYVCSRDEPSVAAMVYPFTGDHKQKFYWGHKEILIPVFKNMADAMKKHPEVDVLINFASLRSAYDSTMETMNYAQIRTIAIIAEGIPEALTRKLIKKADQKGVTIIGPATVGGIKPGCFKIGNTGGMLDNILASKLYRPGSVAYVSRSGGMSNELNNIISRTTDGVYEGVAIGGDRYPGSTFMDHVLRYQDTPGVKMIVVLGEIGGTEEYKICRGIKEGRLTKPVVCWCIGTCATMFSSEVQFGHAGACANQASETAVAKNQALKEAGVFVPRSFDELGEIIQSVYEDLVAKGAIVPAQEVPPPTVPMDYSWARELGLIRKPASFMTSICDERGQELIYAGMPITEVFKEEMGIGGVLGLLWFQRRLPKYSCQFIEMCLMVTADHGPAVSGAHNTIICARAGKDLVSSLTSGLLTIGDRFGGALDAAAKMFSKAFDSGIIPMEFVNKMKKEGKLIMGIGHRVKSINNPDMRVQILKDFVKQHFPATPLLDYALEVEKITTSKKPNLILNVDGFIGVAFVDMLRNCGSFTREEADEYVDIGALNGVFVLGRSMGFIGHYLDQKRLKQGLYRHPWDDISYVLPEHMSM
Sequence of propionyl-CoA carboxylase (P05165 53-728): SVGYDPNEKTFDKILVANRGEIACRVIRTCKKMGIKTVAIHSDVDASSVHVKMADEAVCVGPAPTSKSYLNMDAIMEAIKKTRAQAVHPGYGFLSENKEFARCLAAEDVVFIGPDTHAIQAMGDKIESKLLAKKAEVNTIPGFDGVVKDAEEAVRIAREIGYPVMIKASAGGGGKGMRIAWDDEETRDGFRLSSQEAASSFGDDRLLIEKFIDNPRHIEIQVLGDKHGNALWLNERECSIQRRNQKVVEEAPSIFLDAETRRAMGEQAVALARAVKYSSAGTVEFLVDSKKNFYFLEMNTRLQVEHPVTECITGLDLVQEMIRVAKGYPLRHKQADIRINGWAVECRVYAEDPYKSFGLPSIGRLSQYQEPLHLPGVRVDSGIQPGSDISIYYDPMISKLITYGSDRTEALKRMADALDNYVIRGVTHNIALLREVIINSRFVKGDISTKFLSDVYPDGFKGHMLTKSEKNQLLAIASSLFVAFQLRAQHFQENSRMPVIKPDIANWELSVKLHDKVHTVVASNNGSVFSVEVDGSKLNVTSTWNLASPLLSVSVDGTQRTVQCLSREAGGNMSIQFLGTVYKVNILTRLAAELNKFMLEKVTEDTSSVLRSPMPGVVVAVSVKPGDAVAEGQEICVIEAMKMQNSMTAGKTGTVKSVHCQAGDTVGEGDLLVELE
Sequence of propionyl-CoA carboxylase (P05166 29-539): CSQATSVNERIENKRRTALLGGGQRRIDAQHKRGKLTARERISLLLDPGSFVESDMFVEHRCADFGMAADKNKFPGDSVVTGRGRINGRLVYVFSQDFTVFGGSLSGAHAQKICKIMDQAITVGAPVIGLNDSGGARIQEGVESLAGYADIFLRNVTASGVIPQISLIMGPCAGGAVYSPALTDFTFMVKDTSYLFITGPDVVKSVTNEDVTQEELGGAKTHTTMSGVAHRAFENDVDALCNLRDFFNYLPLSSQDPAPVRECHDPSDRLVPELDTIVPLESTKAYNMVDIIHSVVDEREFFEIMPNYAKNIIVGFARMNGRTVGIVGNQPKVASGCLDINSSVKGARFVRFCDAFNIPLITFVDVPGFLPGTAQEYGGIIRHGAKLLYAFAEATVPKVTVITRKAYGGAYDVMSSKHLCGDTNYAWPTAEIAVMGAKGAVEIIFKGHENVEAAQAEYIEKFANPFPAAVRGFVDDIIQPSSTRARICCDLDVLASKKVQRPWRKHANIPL

O=C(c1c2ccccc2cc2ccccc12)N1CCC(N2CCC[C@@H](C(=O)N3CCOCC3)C2)CC1 [CP-640186]
inhibition of pyruvate carboxylase (pyruvate carboxylase): without inhibiting | IC50 (ACC2): ~60 nM | inhibition of propionyl-CoA carboxylase [1]: without inhibiting | IC50 (ACC1): ~60 nM

O=S(=O)(Nc1cc(-c2ccccc2)ccc1F)c1cc(Cl)cc(Cl)c1O [I-22, 3,5-dichloro-N-(2-fluoro-5-phenylphenyl)-2-hydroxybenzene-1-sulfonamide]
IC50 [2]: 1000 to 5000 nM | IC50 (ACL [3]): < 50 nM | IC50 (HepG2 cells [4]): 1000 to 5000 nM | IC50 (HepG2 cells [5]): < 1 µM | IC50 (ACL [6]): 50 to 500 nM | IC50 (HepG2 cells [7]): 1 to 10 µM | IC50 (HepG2 cells [8]): < 1000 nM

COc1cc(F)c(-c2cc3ccccc3s2)cc1NS(=O)(=O)c1cc(C(=O)N2CCC2)cc(Cl)c1O [I-286]
IC50 [2]: 1000 to 5000 nM | IC50 (ACL [3]; read-out: ACL-MDH Coupled Assay (IC50), 8 nM ACL, 60 μM CoA Na2, 85 μM Citrate, 250 μM ATP, 250 μM NADH): < 50 nM | IC50 (HepG2 cells [5]): 1 to 5 µM | IC50 (ACL [6]; read-out: ACL-ADP-Glo (IC50), 3 nM ACL, 15 μM ATP, 3 μM CoA, 300 μM Citrate): < 50 nM | IC50 (HepG2 cells [7]): 1 to 10 µM

O=C(Nc1cc(-c2ccccc2)c(F)cc1C(=O)O)c1cc(Cl)cc(Cl)c1 [I-318, 5-(3,5-dichlorobenzamido)-2-fluoro-[1,1′-biphenyl]-4-carboxylic Acid]
IC50 [2]: 5000 to 20000 nM | IC50 (ACL [3]): 500 to 30000 nM | IC50 (HepG2 cells [5]): 1 to 5 µM | IC50 (ACL [6]): 500 to 20000 nM | IC50 (HepG2 cells [7]): 1 to 10 µM
